This test concerns the target Prostasin (Homo sapiens, UniProt Q16651). Description: Binding affinity to human prostasin.

A value given as a limit tells only on which side of the number the result lay.

This note sets out measurements from ChEMBL document CHEMBL1151797, “Discovery of inhibitors of the channel-activating protease prostasin (CAP1/PRSS8) utilizing structure-based design” (Bioorg Med Chem Lett, 2008).

Chain of Prostasin (Q16651 45-322 limits assumed, other chains not shown): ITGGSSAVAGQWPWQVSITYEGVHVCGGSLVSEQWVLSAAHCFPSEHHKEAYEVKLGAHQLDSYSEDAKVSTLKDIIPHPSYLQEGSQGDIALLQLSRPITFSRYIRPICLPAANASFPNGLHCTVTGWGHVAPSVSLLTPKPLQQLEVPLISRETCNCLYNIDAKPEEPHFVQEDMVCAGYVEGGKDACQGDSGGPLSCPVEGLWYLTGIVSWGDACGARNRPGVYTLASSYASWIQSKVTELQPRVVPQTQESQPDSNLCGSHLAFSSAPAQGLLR

Regarding `NCCCC[C@H](NC(=O)[C@@H]1C[C@@H](OC(=O)N2CCCC2)CN1C(=O)[C@@H](CCc1ccccc1)NC(=O)OCc1ccccc1)C(=O)c1nc2ccccc2o1`, the affinity corresponds to a Ki of 0.101 µM.
With `NCCCC[C@H](NC(=O)[C@H](CCc1ccccc1)NC(=O)[C@H](Cc1cnc[nH]1)NC(=O)OCc1ccccc1)C(=O)c1nc2ccccc2o1` the figure was 2.1 µM.
`CC(C)C[C@H](NC(=O)[C@H](Cc1cnc[nH]1)NC(=O)OCc1ccccc1)C(=O)N[C@@H](CCCCN)C(=O)c1nc2ccccc2o1` displayed a Ki of 5.72 µM.
With `Cc1ccc(CO[C@@H]2C[C@@H](C(=O)N[C@@H](CCCCN)C(=O)c3nc4ccccc4o3)N(C(=O)[C@@H](CCc3ccccc3)NC(=O)OCc3ccccc3)C2)cc1` the figure was 0.045 µM; with `CN(C)C(=O)O[C@@H]1C[C@@H](C(=O)N[C@@H](CCCCN)C(=O)c2nc3ccccc3o2)N(C(=O)[C@@H](CCc2ccccc2)NC(=O)OCc2ccccc2)C1`, 1.55 µM.
Take `NCCCC[C@H](NC(=O)[C@H](CCc1ccccc1)NC(=O)OCc1ccccc1)C(=O)c1nc2ccccc2o1`: the Ki is over 100 µM.
For the compound `NCCCC[C@H](NC(=O)[C@@H]1C[C@@H](O)CN1C(=O)[C@@H](CCc1ccccc1)NC(=O)OCc1ccccc1)C(=O)c1nc2ccccc2o1`, the Ki was found to be 1.04 µM. This counts as single-digit micromolar.
With `NCCCC[C@H](NC(=O)[C@@H]1C[C@@H](OCC2CCCC2)CN1C(=O)[C@@H](CCc1ccccc1)NC(=O)OCc1ccccc1)C(=O)c1nc2ccccc2o1` the figure was 0.065 µM; with `NCCCC[C@H](NC(=O)[C@@H]1CCCN1C(=O)[C@@H](CCc1ccccc1)NC(=O)OCc1ccccc1)C(=O)c1nc2ccccc2o1`, 1.4 µM.
With `NCCCC[C@H](NC(=O)[C@@H]1C[C@@H](OC(=O)N2CCCCC2)CN1C(=O)[C@@H](CCc1ccccc1)NC(=O)OCc1ccccc1)C(=O)c1nc2ccccc2o1` the figure was 0.029 µM; with `NCCCC[C@H](NC(=O)[C@@H]1C[C@@H](OC(=O)Nc2ccccc2)CN1C(=O)[C@@H](CCc1ccccc1)NC(=O)OCc1ccccc1)C(=O)c1nc2ccccc2o1`, 0.13 µM.
The figure for `C[C@H]1CCN(C(=O)[C@@H](CCc2ccccc2)NC(=O)OCc2ccccc2)[C@@H]1C(=O)N[C@@H](CCCCN)C(=O)c1nc2ccccc2o1` is 0.049 µM; for `NCCCC[C@H](NC(=O)[C@@H]1C[C@@H](OC(=O)NCc2ccccc2)CN1C(=O)[C@@H](CCc1ccccc1)NC(=O)OCc1ccccc1)C(=O)c1nc2ccccc2o1` it is 0.06 µM; for `CC(C)C[C@H](NC(=O)OCc1ccccc1)C(=O)N[C@@H](CCCCN)C(=O)c1nc2ccccc2o1` it is over 100 µM.
In turn, `NCCCC[C@H](NC(=O)[C@@H]1C[C@@H](OCc2ccc(F)cc2)CN1C(=O)[C@@H](CCc1ccccc1)NC(=O)OCc1ccccc1)C(=O)c1nc2ccccc2o1` showed a Ki of 0.027 µM. This lies in the double-digit nanomolar range.
With `NCCCC[C@H](NC(=O)[C@@H]1C[C@@H](OCc2cccc(C(F)(F)F)c2)CN1C(=O)[C@@H](CCc1ccccc1)NC(=O)OCc1ccccc1)C(=O)c1nc2ccccc2o1` the figure was 0.041 µM; with `NCCCC[C@H](NC(=O)[C@@H]1C[C@@H](OC(=O)N2CCOCC2)CN1C(=O)[C@@H](CCc1ccccc1)NC(=O)OCc1ccccc1)C(=O)c1nc2ccccc2o1`, 0.51 µM.
`NCCCC[C@H](NC(=O)[C@@H]1C[C@@H](OCc2ccccc2)CN1C(=O)[C@@H](CCc1ccccc1)NC(=O)OCc1ccccc1)C(=O)c1nc2ccccc2o1` gave a Ki of 0.04 µM.
The figure for `NCCCC[C@H](NC(=O)[C@@H]1C[C@@H](OCC2CCCCC2)CN1C(=O)[C@@H](CCc1ccccc1)NC(=O)OCc1ccccc1)C(=O)c1nc2ccccc2o1` is 0.019 µM.
The figure for `NCCCC[C@H](NC(=O)[C@@H]1C[C@@H](OCc2ccc(Cl)cc2)CN1C(=O)[C@@H](CCc1ccccc1)NC(=O)OCc1ccccc1)C(=O)c1nc2ccccc2o1` is 0.012 µM.
With `NCCCC[C@H](NC(=O)[C@@H]1C[C@@H](OCc2ccc(C(F)(F)F)cc2)CN1C(=O)[C@@H](CCc1ccccc1)NC(=O)OCc1ccccc1)C(=O)c1nc2ccccc2o1` the figure was 0.028 µM; with `CC(C)C[C@H](NC(=O)[C@H](CCCCN)NC(=O)OCc1ccccc1)C(=O)N[C@@H](CCCCN)C(=O)c1nc2ccccc2o1`, 15.2 µM; with `NCCCC[C@H](NC(=O)[C@@H]1[C@@H](c2ccccc2)CCN1C(=O)[C@@H](CCc1ccccc1)NC(=O)OCc1ccccc1)C(=O)c1nc2ccccc2o1`, 0.267 µM.
In turn, `CS(=O)(=O)c1ccc(CNC(=O)O[C@@H]2C[C@@H](C(=O)N[C@@H](CCCCN)C(=O)c3nc4ccccc4o3)N(C(=O)[C@@H](CCc3ccccc3)NC(=O)OCc3ccccc3)C2)cc1` had a Ki of 0.176 µM. This Ki lies about 1.5-fold lower than the previous one.
